# Results from patent US10975068B2, “6-aminopyridin-3-yl thiazoles as modulators of RORγT” (Janssen Pharmaceutica NV, priority 2016, dated 2021).
# Read-outs that look alike come from different tables or passages of the source.
# Experiments:
# full-length human RORγt = full-length human RORγt (Homo sapiens (Human), UniProt P51449); assay: RORγt (full-length human) reporter assay, Conditions B or C; type: cell-based; conditions: for RORγt (FL) Reporter Assay B or C, % inhibition (value marked *): marked *: footnote not given; for inhibition at 3 µM: at 3 μM compound concentration, read-out: RORγt (FL) Reporter Assay B or C, % inhibition
# Chain of full-length human RORγt (P51449 other isoform, or with tags, fused parts or gaps): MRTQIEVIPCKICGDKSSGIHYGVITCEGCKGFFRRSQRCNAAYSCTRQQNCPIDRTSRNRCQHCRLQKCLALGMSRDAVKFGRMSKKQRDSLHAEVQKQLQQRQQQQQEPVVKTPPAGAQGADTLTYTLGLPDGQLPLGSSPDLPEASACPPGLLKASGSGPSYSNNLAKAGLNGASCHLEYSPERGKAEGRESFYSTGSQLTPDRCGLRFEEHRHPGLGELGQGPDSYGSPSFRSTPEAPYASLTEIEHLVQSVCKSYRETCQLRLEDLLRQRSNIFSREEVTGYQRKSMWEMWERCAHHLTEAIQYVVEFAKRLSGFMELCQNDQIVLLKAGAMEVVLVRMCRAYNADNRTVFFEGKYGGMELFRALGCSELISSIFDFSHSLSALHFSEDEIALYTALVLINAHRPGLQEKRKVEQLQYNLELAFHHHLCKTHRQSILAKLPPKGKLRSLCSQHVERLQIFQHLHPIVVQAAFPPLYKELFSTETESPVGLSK
# Procedure, shortened: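 HEK293T cells transiently co-transfected with GAL4-DBD–full-length human RORγt (nt 142-1635, NM_001001523.1) plus GAL4-firefly and CMV-Renilla luciferase reporters; compounds added 4-6 h post-transfection for 16-20 h in 1.3% FBS, 0.1% DMSO. Firefly signal normalized to DMSO and saturating reference compound, then to Renilla; IC50 from concentration plots.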
# [1] = target: human RORγt ligand binding domain (RORγt LBD) (Homo sapiens (Human), UniProt P51449); assay: RORγt ThermoFluor® assay (thermal shift binding)
# Chain of human RORγt ligand binding domain (RORγt LBD) (P51449 other isoform, or with tags, fused parts or gaps): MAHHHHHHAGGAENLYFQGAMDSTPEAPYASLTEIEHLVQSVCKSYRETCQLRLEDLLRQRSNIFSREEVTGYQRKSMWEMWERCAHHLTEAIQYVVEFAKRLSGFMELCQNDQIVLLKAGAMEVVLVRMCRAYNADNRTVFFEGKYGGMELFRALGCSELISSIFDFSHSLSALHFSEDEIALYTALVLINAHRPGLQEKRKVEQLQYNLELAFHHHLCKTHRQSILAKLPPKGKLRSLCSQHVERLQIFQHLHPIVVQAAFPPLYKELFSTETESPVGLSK
# Procedure, shortened: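 His-tagged human RORγt LBD (0.065 mg/mL) with 60 μM 1,8-ANS in 100 mM Hepes pH 7.0, 10 mM NaCl, 2.5 mM GSH, 0.002% Tween-20 was heated at 1 °C/min.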
# [2] = Conditions B or C, read-out: RORγt (FL) Reporter Assay B or C, IC50
# [3] = read-out: ThermoFluor® Assay, Kd
# [4] = read-out: RORγt (FL) Reporter Assay B or C, IC50
SMILES,"RORγt (FL) Reporter Assay B or C, % inhibition (value marked *) (full-length human RORγt; Conditions B or C)",IC50 (full-length human RORγt; [2]) [µM],"Kd [1, 3] [µM]",inhibition at 3 µM (full-length human RORγt) [%],IC50 (full-length human RORγt; [4]) [µM],"IC50 (full-length human RORγt; RORγt (FL) Reporter Assay B or C, IC50 (μM), Conditions B or C) [µM]","Kd ([1]; ThermoFluor® Assay, Kd (μM)) [µM]"
"C[C@H]1CC(F)(F)CN1C(=O)c1nc(C(=O)NCC(C)(C)O)sc1-c1cnc(NC(C)(C)C2CC2)cc1C(F)(F)F [Example 107, (S)-5-(6-((2-Cyclopropylpropan-2-yl)amino)-4-(trifluoromethyl)pyridin-3-yl)-4-(4,4-difluoro-2-methylpyrrolidine-1-carbonyl)-N-(2-hydroxy-2-methylpropyl)thiazole-2-carboxamide]",111* %,0.011,0.00026,,,,
"C[C@H]1CCCN1C(=O)c1nc(C(=O)NC2CCOCC2)sc1-c1cnc(NC(C)(C)C)cc1C(F)F [Example 412, 5-[6-(tert-Butylamino)-4-(difluoromethyl)-3-pyridyl]-4-[(2S)-2-methylpyrrolidine-1-carbonyl]-N-tetrahydropyran-4-yl-thiazole-2-carboxamide]",,,0.0034,127,0.037,,
"C[C@H]1CCCN1C(=O)c1nc(C(=O)NCC(O)(C(F)(F)F)C(F)(F)F)sc1-c1cnc(NC(C)(C)C)cc1C(F)(F)F [Example 271, 5-[6-(tert-Butylamino)-4-(trifluoromethyl)-3-pyridyl]-4-[(2S)-2-methylpyrrolidine-1-carbonyl]-N-[3,3,3-trifluoro-2-hydroxy-2-(trifluoromethyl)propyl]thiazole-2-carboxamide]",,,0.004,106,0.0057,,
"C[C@H]1CCCN1C(=O)c1nc(C(=O)N[C@H]2CC[C@@H]2O)sc1-c1cnc(NC(C)(C)C)cc1C(F)(F)F (relative stereo) [Example 371, 5-(6-(tert-Butylamino)-4-(trifluoromethyl)pyridin-3-yl)-N-((1S*,2S*)-2-hydroxycyclobutyl)-4-((S)-2-methylpyrrolidine-1-carbonyl)thiazole-2-carboxamide]",,,0.00088,108,0.019,,
"C[C@H](NC(=O)c1nc(C(=O)N2CC(F)(F)C[C@@H]2C)c(-c2cnc(NC3(C)CCC3)cc2C(F)F)s1)C(C)(C)O [Example 326, 4-((S)-4,4-Difluoro-2-methylpyrrolidine-1-carbonyl)-5-(4-(difluoromethyl)-6-((1-methylcyclobutyl)amino)pyridin-3-yl)-N—((S)-3-hydroxy-3-methylbutan-2-yl)thiazole-2-carboxamide]",,,0.00071,90,0.097,,
"CC[C@H](Nc1cc(C(F)F)c(-c2sc(C(=O)N[C@H](C)C(C)(C)O)nc2C(=O)N2C3CCC2CC3)cn1)C(F)(F)F [Example 242, 4-((1s,4s)-7-Azabicyclo[2.2.1]heptane-7-carbonyl)-5-[4-(difluoromethyl)-6-[[(1S)-1-(trifluoromethyl)propyl]amino]-3-pyridyl]-N-[(1R)-2-hydroxy-1,2-dimethyl-propyl]thiazole-2-carboxamide]",86* %,0.015,0.0028,,,,
"C[C@H]1CCCN1C(=O)c1nc(C(=O)NCC(C)(C)O)sc1-c1cnc(NC(C)(C)C)cc1C(F)F [Example 265, 5-[6-(tert-Butylamino)-4-(difluoromethyl)-3-pyridyl]-N-(2-hydroxy-2-methyl-propyl)-4-[(2S)-2-methylpyrrolidine-1-carbonyl]thiazole-2-carboxamide]",,,0.0064,98,0.075,,
"C[C@H]1CC(F)(F)CN1C(=O)c1nc(C(=O)NCC(C)(C)O)sc1-c1cnc(NC(C)(C)C)cc1C(F)F [Example 143, (S)-5-(6-(tert-Butylamino)-4-(difluoromethyl)pyridin-3-yl)-4-(4,4-difluoro-2-methylpyrrolidine-1-carbonyl)-N-(2-hydroxy-2-methylpropyl)thiazole-2-carboxamide]",114* %,0.039,0.0023,,,,
"C[C@H](Nc1cc(C(F)(F)F)c(-c2sc(C(=O)N[C@H](C)C(C)(C)O)nc2C(=O)N2CC(F)(F)C[C@@H]2C)cn1)C1CC1 [Example 203, 5-(6-(((S)-1-Cyclopropylethyl)amino)-4-(trifluoromethyl)pyridine-3-yl)-4-((S)-4,4-difluoro-2-methylpyrrolidine-1-carbonyl)-N—((R)-3-hydroxy-3-methylbutan-2-yl)thiazole-2-carboxamide]",97* %,0.042,0.0015,,,,
"C[C@H](Nc1cc(C(F)F)c(-c2sc(C(=O)N[C@H]3CC[C@@H]3O)nc2C(=O)N2C3CCC2CC3)cn1)C(F)(F)F (relative stereo) [Example 292, 4-((1s,4s)-7-Azabicyclo[2.2.1]heptane-7-carbonyl)-5-(4-(difluoromethyl)-6-(((S)-1,1,1-trifluoropropan-2-yl)amino)pyridin-3-yl)-N-((1S*,2S*)-2-hydroxycyclobutyl)thiazole-2-carboxamide]",,,0.0061,106,0.04,,
"C[C@H](NC(=O)c1nc(C(=O)N2CCC[C@@H]2C)c(-c2cnc(N[C@H](C)C(F)(F)F)cc2C(F)F)s1)C(C)(C)O [Example 304, 5-(4-(Difluoromethyl)-6-(((R)-1,1,1-trifluoropropan-2-yl)amino)pyridin-3-yl)-N—((S)-3-hydroxy-3-methylbutan-2-yl)-4-((S)-2-methylpyrrolidine-1-carbonyl)thiazole-2-carboxamide]",,,0.0051,102,0.092,,
"CC[C@@H](Nc1cc(C(F)(F)F)c(-c2sc(C(=O)NCC(C)(C)O)nc2C(=O)N2CCC[C@@H]2C)cn1)C(F)(F)F [Example 282, N-(2-Hydroxy-2-methyl-propyl)-4-[(2S)-2-methylpyrrolidine-1-carbonyl]-5-[4-(trifluoromethyl)-6-[[(1R)-1-(trifluoromethyl)propyl]amino]-3-pyridyl]thiazole-2-carboxamide]",,,0.0014,109,0.019,,
"C[C@H](Nc1cc(C(F)F)c(-c2sc(C(=O)N[C@@H]3COC[C@H]3O)nc2C(=O)N2CCC[C@@H]2C)cn1)C(F)(F)F [Example 215, 5-(4-(Difluoromethyl)-6-(((1S)-2,2,2-trifluoro-1-methyl-ethyl)amino)-3-pyridyl)-N-((3R,4S)-4-hydroxytetrahydrofuran-3-yl)-4-((2S)-2-methylpyrrolidine-1-carbonyl)thiazole-2-carboxamide]",107* %,0.1,0.012,,,,
"C[C@H](Nc1cc(C(F)F)c(-c2sc(C(=O)N[C@@H]3CC[C@@H](O)C3)nc2C(=O)N2CCC[C@@H]2C)cn1)C(F)(F)F [Example 289, 5-(4-(Difluoromethyl)-6-(((S)-1,1,1-trifluoropropan-2-yl)amino)pyridin-3-yl)-N-((1R,3R)-3-hydroxycyclopentyl)-4-((S)-2-methylpyrrolidine-1-carbonyl)thiazole-2-carboxamide]",,,0.0038,99,0.069,,
"CC[C@H](Nc1cc(C(F)F)c(-c2sc(C(=O)NC3CN(S(C)(=O)=O)C3)nc2C(=O)N2CCC[C@@H]2C)cn1)C(F)(F)F [Example 383, 5-[4-(Difluoromethyl)-6-[[(1S)-1-(trifluoromethyl)propyl]amino]-3-pyridyl]-4-[(2S)-2-methylpyrrolidine-1-carbonyl]-N-(1-methylsulfonylazetidin-3-yl)thiazole-2-carboxamide]",,,0.0026,108,0.092,,
"CC[C@H](Nc1cc(C(F)F)c(-c2sc(C(=O)N[C@@H]3CCC[C@H]3O)nc2C(=O)N2CCC[C@@H]2C)cn1)C(F)(F)F [Example 231, 5-[4-(Difluoromethyl)-6-[[(1S)-1-(trifluoromethyl)propyl]amino]-3-pyridyl]-N-[(1R,2R)-2-hydroxycyclopentyl]-4-[(2S)-2-methylpyrrolidine-1-carbonyl]thiazole-2-carboxamide]",92* %,0.058,0.0014,,,,
"C[C@H]1CCCN1C(=O)c1nc(C(=O)N[C@H]2CC[C@H](O)C2)sc1-c1cnc(NC(C)(C)C)cc1C(F)F [Example 414, 5-[6-(tert-Butylamino)-4-(difluoromethyl)-3-pyridyl]-N-[(1S,3S)-3-hydroxycyclopentyl]-4-[(2S)-2-methylpyrrolidine-1-carbonyl]thiazole-2-carboxamide]",,,0.0017,110,0.013,,
"CC[C@H](Nc1cc(C(F)F)c(-c2sc(C(=O)N[C@@H]3CC[C@H]3O)nc2C(=O)N2C3CCC2CC3)cn1)C(F)(F)F (relative stereo) [Example 405, 4-((1s,4s)-7-Azabicyclo[2.2.1]heptane-7-carbonyl)-5-(4-(difluoromethyl)-6-(((S)-1,1,1-trifluorobutan-2-yl)amino)pyridin-3-yl)-N-((1R*,2R*)-2-hydroxycyclobutyl)thiazole-2-carboxamide]",,,0.002,95,0.11,,
CC[C@@H](Nc1cc(C(F)(F)F)c(-c2sc(C(=O)NCC(C)(C)O)nc2C(=O)N2C3CCC2CC3)cn1)C1CC1 (stereo in doubt) [Example 131],107* %,,,,,0.03,0.0014
